Measurements: patent US5493027A, “Anticonvulsive agents and uses thereof” (priority 1993, dated 1996)
Entries after “also recorded” stand apart in the source; their conditions may differ. Where two headings read alike, the source gives them in different places.

Columns and labels:
[1] = test system: pentylenetetrazole (Metrazol) induced seizures; assay: Subcutaneous pentylenetetrazole (Metrazol) seizure threshold test (Met) in mice; type: in vivo, male Carworth Farms number-1 mice; details: for minimal effective dose: Mus musculus, ip; for Sc MET: mice i.p.
Protocol: (§1) Compounds were screened for anticonvulsant activity in male Carworth Farms number-1 mice. Test solutions of all compounds were prepared in 30% polyethylene glycol 400, and animals were dosed intraperitoneally at either 30 minutes or 4 hours prior to testing. Testing was conducted on four mice at each of three dose levels (30, 100, and 300 mg/kg).
(§2) In the subcutaneous pentylenetetrazole (Metrazol) seizure threshold test(met), 85 mg/kg pentylenetetrazole was administered as a 0.5% solution in the posterior midline. Protection in this test was defined as a failure to observe a single episode of clonic spasms of at least 5 s duration during the 30 minute period following administration of the convulsive agent.
as §1, with “Biological testing--Compounds” for “Compounds”, “number-one” for “number-1”, “min” for “minutes”, “h” for “hours”
as §2, with “test (Met),” for “test(met),”, “min” for “minute”

[2] = biological target: T1, strychnine-insensitive glycine binding site of the NMDA receptor (Rattus norvegicus, UniProt P35439); assay: Inhibition of [3H]glycine specific binding (strychnine-insensitive) in rat cerebral cortex membranes; details: 10 uM compound
T1 construct: Membranes were prepared from rat cerebral cortex; from tissue; host or cells: rat cerebral cortex, "buffy coat" membranes
Protocol: Binding Studies--Inhibition of [^3 H]glycine specific binding was assayed using [^3 H]glycine (43 Ci/mmol) obtained from DuPont-New England Nuclear. […] Membranes were prepared from rat cerebral cortex and assays were conducted in Na-free 50 mM HEPES (Sigma) at pH 7.4. Membranes were incubated in a final volume of 1 ml with 20 nM [^3 H]glycine and a 10 uM concentration of the test compound. Although experience has shown that [^3 H]glycine binding in this preparation is strychnine insensitive, 10 uM strychnine was added to the assay mixtures to eliminate the possibility that any effects studied could be mediated through a strychnine-sensitive process. Incubation was continued for 20 min at 4° C. Non-specific binding was determined in the presence of 1 mM glycine and subtracted. All conditions were tested in triplicate in 3 different assays. Binding was terminated using a Brandel M-24C cell harvester employing rapid filtration through GF/C glass fiber filters pre-soaked in 1% (V/V) polyethylenimine. Filters were washed twice with 5 ml buffer cooled to 4° C. Radioactivity bound to the filters was determined with a Beckman LS-500OTD liquid scintillation counter.

[3] = test system: neurological deficit (rotorod); assay: Rotorod test for neurological deficit (TOX) in mice; type: in vivo, male Carworth Farms number-1 mice
Protocol: as §1
Animals were also tested for neurological deficit using the rotorod. After treatment, the animal was placed on a 1 inch diameter knurled plastic rod rotating at 6 rpm. Neurologic deficit was defined as the failure of the animal to remain on the rod for 1 minute.
as §1, with “Biological testing--Compounds” for “Compounds”, “number-one” for “number-1”, “min” for “minutes”, “h” for “hours”
Animals were also tested for neurological deficit using the rotorod. After treatment, the animal was placed on a 1 inch diameter knurled plastic rod rotating at 6 rpm. Neurologic deficit was defined as the failure of the animal to remain on the rod for 1 min.

[4] = test system: maximal electroshock seizures (MES); assay: animal or person; type: in vivo, male Carworth Farms number-1 mice; details: for minimal effective dose: Mus musculus, ip; for MES: mice i.p.
Protocol: as §1
(§3) Maximal electroshock seizures (MES) were elicited with a 60 cycle alternatiing current of 50-mA intensity (five to seven times that necessary to evoke minimal electroshock threshold seizures). Current was delivered via corneal electrodes for 0.2 s. A drop of 0.9% saline was instilled in the eye prior to application of electrodes. Abolition of the hindlimb tonic extension component of the seizure was defined as protection in the MES test.
as §1, with “Biological testing--Compounds” for “Compounds”, “number-one” for “number-1”, “min” for “minutes”, “h” for “hours”
as §3, with “alternating” for “alternatiing”

[5] = test system: seizures induced by electroshock and pentylenetetrazole; assay: Anticonvulsant testing, overall (MES and Met); type: in vivo, male Carworth Farms number-1 mice; details: for CLASS: Phase I Identification: mice, i.p., classes not defined in the patent
Protocol: as §1, §3, §2
as §1, with “Biological testing--Compounds” for “Compounds”, “number-one” for “number-1”, “min” for “minutes”, “h” for “hours”
as §3, with “alternating” for “alternatiing”
as §2, with “test (Met),” for “test(met),”, “min” for “minute”

[6] = Table 7, value without parentheses = effective dose, read-out: Effective Intraperitoneal Dose, Met
[7] = mice, intraperitoneal, read-out: dose active in Met test
[8] = Table 7, value without parentheses = effective dose, read-out: Effective Intraperitoneal Dose, MES
[9] = mice, intraperitoneal, read-out: dose active in MES test

| SMILES | minimal effective dose [1, 6] [mg/kg] | [3H]glycine binding inhibition [2] | Effective Intraperitoneal Dose, Rotorod ([3]; mouse, in vivo, ip) [mg/kg] | anticonvulsant activity (words) ([5]; mice, intraperitoneal) | Sc MET ([1]; 30 minutes, 30 mg/kg) | Sc MET ([1]; 30 minutes, 100 mg/kg) | Sc MET ([1]; 30 minutes, 300 mg/kg) | Sc MET ([1]; 4 hours, 30 mg/kg) | Sc MET ([1]; 4 hours, 100 mg/kg) | Sc MET ([1]; 4 hours, 300 mg/kg) | MES ([4]; 30 minutes, 30 mg/kg) | MES ([4]; 30 minutes, 100 mg/kg) | MES ([4]; 30 minutes, 300 mg/kg) | MES ([4]; 4 hours, 30 mg/kg) | MES ([4]; 4 hours, 100 mg/kg) | MES ([4]; 4 hours, 300 mg/kg) | CLASS [5] | further results |
| --- | --- | --- | --- | --- | --- | --- | --- | --- | --- | --- | --- | --- | --- | --- | --- | --- | --- | --- |
| CCOC(=O)c1cc2cc(OC)ccc2[nH]1 [5-methoxy-indole-2-ethyl ester, 5-methoxy-indole-2-ethyl carboxylate] | 100 | did not compete for [^3 H]glycine binding; also recorded: did not inhibit [^3 H]glycine binding |  |  |  |  |  |  |  |  |  |  |  |  |  |  |  | minimal effective dose [1, 7]: 100 mg/kg; Effective Intraperitoneal Dose, Rotorod ([3]; Table 7, value without parentheses = effective dose (neurologic deficit)): 300 mg/kg; dose causing neurological deficit on rotorod ([3]; mice, intraperitoneal): 300 mg/kg; minimal effective dose [4, 8]: 300 mg/kg; minimal effective dose [4, 9]: 300 mg/kg |
| COc1ccc2[nH]c(C(=O)O)cc2c1 [5-methoxy-indole-2-COOH] |  |  | 300 | no anticonvulsant activity |  |  |  |  |  |  |  |  |  |  |  |  |  | (Maximum Ineffective) Intraperitoneal Dose, Met ([1]; Table 7, value in parentheses = maximum ineffective dose): 300 mg/kg |
| O=C(O)c1cc2cc(Cl)ccc2[nH]1 [5-Cl-indole-2-COOH, 5-chloro-indole-2-carboxylic acid] | 100 | binding competition similar to that seen with the 5-fluoro derivative | 300 |  |  |  |  |  |  |  |  |  |  |  |  |  |  | minimal effective dose [1, 7]: 100 mg/kg; Met activity ([1]; mice, intraperitoneal): Met protection; dose causing neurological deficit on rotorod ([3]; mouse, in vivo, ip): 300 mg/kg |
| Cc1cc2c(O)cc(C(=O)O)nc2cc1Cl [6-CH3-7-Cl-2-COOH] |  | glycine-binding inhibition |  | no anticonvulsant activity |  |  |  |  |  |  |  |  |  |  |  |  |  |  |
| CCOC(=O)c1cc2cc(Cl)ccc2[nH]1 [5-Cl-2-ethyl ester] |  | inactive |  | inactive; also recorded: abolished activity |  |  |  |  |  |  |  |  |  |  |  |  |  |  |
| Nc1cc(C(=O)O)nc2cc(Cl)cc(Cl)c12 [4-amino-5,7-dichloro-2-quinoline carboxylate acid] |  |  |  | lack of anticonvulsive activity | 0/1 | 0/1 | 0/1 | 0/1 | 0/1 | 0/1 | 0/1 | 0/3 | 0/1 | 0/1 | 0/3 | 0/1 | 3 |  |
| CCCCOC(=O)c1cc(NC)c2c(Cl)cc(Cl)cc2n1 [Butyl 4-Methylamino-5,7-dichloro-2-quinoline Carboxylate] |  |  |  | inactive | 0/1 | 0/1 | 0/1 | 0/1 | 0/1 | 0/1 | 0/1 | 0/3 | 0/1 | 0/1 | 0/3 | 0/1 | 31 | anticonvulsant activity (words) ([5]; mice, intraperitoneal, listed as 5,7-di-Cl-4-methylamino-2-butyl ester): inactive in anticonvulsant testing; anticonvulsant activity (words) ([5]; mice, intraperitoneal, listed as ester-4-methylamino-5,7-dichloro quinoline-2-carboxylate n-butyryl): lack of anticonvulsant activity |
| CNc1cc(C(=O)O)nc2cc(Cl)cc(Cl)c12 [5,7-di-Cl-4-methylamino-kyn-2-COOH, 4-methylamino-5,7-dichloro-2-quinoline carboxylic acid] | 300 | best inhibitor of [^3 H]glycine binding | 100 |  | 0/2 | 0/1 | 1/1 | 0/1 | 0/1 | 0/1 | 0/1 | 0/3 | 1/1 | 0/1 | 0/3 | 0/1 | 2 | dose causing neurological deficit on rotorod ([3]; mouse, in vivo, ip): 300 mg/kg; TOX comment ([3]; mouse, in vivo, ip, 300 mg/kg): Unable to hold onto rotorod; minimal effective dose [4, 8]: 100 mg/kg; minimal effective dose [4, 9]: 100 mg/kg; minimal effective dose ([5]; Mus musculus, ip, mice, intraperitoneal, read-out: dose level with anticonvulsant activity (test not given)): ≤ 100 mg/kg |
